Experimental data: ChEMBL document CHEMBL1149857, “Novel azaphilones, kasanosins A and B, which are specific inhibitors of eukaryotic DNA polymerases beta and lambda from Talaromyces sp” (Bioorg Med Chem, 2008)
The source made the active and inactive calls. The rule behind the calls is not given here.

Legend:
Bos taurus = species on record: Bos taurus; assay: Inhibition of calf DNA polymerase alpha at 100 uM relative to control
Brassica oleracea = assay: Inhibition of cauliflower DNA polymerase alpha at 100 uM
[1] = target: Deoxyribonuclease-1 (Bos taurus) (UniProt P00639); assay: Inhibition of bovine deoxyribonuclease 1 at 100 uM relative to control
Escherichia phage T7 = assay: Inhibition of T7 RNA polymerase […] at 100 uM relative to control
Tequatrovirus T4 = assay: Inhibition of T4 DNA polymerase at 100 uM
Oncorhynchus masou = assay: Inhibition of cherry salmon DNA polymerase delta at 100 uM
[2] = target: DNA nucleotidylexotransferase (Bos taurus) (UniProt P06526); assay: Inhibition of calf terminal deoxynucleotidyl transferase
Thermus aquaticus = assay: Inhibition of Thermus aquaticus DNA polymerase at 100 uM
[3] = target: DNA polymerase beta (Rattus norvegicus) (UniProt P06766); assay: Inhibition of rat DNA polymerase beta at 100 uM
[4] = target: DNA topoisomerase 2-alpha (Homo sapiens) (UniProt P11388); assay: Inhibition of human DNA topoisomerase 2 at 100 uM relative to control
[5] = target: Human immunodeficiency virus type 1 reverse transcriptase (Human immunodeficiency virus 1) (UniProt Q72547); assay: Inhibition of HIV1 reverse transcriptase at 100 uM relative to control
[6] = target: T1, DNA polymerase subunit gamma-1 (Homo sapiens, UniProt P54098); assay: Inhibition of human DNA polymerase gamma
T1 sequence (P54098 whole entry): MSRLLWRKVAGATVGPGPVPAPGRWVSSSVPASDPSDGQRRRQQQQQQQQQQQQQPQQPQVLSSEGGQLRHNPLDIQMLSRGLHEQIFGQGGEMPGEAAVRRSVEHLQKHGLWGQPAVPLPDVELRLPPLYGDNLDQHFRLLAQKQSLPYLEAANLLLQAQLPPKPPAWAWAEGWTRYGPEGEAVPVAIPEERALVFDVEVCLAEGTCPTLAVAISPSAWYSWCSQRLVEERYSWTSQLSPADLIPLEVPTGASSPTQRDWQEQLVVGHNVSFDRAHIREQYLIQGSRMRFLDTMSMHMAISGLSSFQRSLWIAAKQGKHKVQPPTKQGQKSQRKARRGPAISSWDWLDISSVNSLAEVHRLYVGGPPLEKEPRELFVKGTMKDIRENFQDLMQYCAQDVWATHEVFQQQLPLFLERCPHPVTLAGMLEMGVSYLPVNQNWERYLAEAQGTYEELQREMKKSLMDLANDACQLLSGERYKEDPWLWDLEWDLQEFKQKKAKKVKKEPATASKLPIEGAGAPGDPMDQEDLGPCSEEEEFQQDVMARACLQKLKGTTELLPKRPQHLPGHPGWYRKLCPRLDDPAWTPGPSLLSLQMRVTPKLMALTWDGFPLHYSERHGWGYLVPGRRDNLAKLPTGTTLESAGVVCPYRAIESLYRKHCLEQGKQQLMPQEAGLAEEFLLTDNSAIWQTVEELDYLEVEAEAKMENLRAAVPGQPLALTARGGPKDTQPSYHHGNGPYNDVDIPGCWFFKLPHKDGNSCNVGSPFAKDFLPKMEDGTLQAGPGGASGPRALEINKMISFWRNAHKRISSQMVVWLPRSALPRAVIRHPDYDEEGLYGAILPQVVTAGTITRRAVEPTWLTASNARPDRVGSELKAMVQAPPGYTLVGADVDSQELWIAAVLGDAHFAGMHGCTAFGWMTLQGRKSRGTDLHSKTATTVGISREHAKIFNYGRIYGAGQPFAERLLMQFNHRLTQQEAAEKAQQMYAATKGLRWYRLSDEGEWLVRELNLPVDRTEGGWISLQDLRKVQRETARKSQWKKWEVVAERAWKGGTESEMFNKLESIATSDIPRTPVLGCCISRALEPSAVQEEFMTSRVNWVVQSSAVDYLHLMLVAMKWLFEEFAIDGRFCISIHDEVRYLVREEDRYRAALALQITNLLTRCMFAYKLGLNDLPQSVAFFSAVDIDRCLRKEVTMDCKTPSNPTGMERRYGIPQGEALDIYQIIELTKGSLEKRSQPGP

Escherichia coli = assay: Inhibition of Escherichia coli DNA polymerase 1 Klenow fragment at 100 uM
[7] = target: Inosine-5'-monophosphate dehydrogenase 2 (Mus musculus) (UniProt P24547); assay: Inhibition of mouse IMP dehydrogenase 2 at 100 uM relative to control
[8] = target: T2, DNA polymerase subunit gamma-1 (Homo sapiens) (UniProt P54098); assay: Inhibition of human DNA polymerase gamma at 100 uM
T2 sequence (whole entry): T1 sequence (P54098 whole entry)

DNA polymerase beta = DNA polymerase beta (Rattus norvegicus, UniProt P06766); assay: Inhibition of rat DNA polymerase beta
[9] = target: Polynucleotide kinase (Enterobacteria phage T4) (UniProt P06855); assay: Inhibition of T4 polynucleotide kinase at 100 uM relative to control; details: Tequatrovirus T4
[10] = target: T3, DNA topoisomerase 1 (Homo sapiens) (UniProt P11387); assay: Inhibition of human DNA topoisomerase 1 at 100 uM relative to control
T3 sequence (whole entry): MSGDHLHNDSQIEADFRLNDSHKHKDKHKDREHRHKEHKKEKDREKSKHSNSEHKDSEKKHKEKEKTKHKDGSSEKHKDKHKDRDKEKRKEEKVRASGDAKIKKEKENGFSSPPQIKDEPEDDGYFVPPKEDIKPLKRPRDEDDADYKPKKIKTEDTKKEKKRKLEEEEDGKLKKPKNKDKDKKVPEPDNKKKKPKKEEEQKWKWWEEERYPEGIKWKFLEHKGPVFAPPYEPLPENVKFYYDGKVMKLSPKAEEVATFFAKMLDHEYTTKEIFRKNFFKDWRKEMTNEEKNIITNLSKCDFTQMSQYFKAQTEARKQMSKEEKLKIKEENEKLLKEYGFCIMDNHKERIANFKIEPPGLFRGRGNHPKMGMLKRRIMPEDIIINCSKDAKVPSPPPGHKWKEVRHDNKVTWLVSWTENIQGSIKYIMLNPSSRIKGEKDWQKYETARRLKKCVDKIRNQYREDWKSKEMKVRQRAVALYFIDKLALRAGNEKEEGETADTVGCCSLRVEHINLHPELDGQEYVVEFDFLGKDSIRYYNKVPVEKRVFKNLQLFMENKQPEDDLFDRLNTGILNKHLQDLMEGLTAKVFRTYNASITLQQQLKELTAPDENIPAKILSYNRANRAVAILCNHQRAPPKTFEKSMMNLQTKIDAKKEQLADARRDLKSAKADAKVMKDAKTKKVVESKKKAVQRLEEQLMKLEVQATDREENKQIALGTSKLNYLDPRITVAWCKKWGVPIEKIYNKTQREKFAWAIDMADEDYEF

[11] = target: Telomerase reverse transcriptase (Homo sapiens) (UniProt O14746); assay: Inhibition of human telomerase at 100 uM relative to control
Telomerase reverse transcriptase (Homo sapiens), sequence (O14746 whole entry): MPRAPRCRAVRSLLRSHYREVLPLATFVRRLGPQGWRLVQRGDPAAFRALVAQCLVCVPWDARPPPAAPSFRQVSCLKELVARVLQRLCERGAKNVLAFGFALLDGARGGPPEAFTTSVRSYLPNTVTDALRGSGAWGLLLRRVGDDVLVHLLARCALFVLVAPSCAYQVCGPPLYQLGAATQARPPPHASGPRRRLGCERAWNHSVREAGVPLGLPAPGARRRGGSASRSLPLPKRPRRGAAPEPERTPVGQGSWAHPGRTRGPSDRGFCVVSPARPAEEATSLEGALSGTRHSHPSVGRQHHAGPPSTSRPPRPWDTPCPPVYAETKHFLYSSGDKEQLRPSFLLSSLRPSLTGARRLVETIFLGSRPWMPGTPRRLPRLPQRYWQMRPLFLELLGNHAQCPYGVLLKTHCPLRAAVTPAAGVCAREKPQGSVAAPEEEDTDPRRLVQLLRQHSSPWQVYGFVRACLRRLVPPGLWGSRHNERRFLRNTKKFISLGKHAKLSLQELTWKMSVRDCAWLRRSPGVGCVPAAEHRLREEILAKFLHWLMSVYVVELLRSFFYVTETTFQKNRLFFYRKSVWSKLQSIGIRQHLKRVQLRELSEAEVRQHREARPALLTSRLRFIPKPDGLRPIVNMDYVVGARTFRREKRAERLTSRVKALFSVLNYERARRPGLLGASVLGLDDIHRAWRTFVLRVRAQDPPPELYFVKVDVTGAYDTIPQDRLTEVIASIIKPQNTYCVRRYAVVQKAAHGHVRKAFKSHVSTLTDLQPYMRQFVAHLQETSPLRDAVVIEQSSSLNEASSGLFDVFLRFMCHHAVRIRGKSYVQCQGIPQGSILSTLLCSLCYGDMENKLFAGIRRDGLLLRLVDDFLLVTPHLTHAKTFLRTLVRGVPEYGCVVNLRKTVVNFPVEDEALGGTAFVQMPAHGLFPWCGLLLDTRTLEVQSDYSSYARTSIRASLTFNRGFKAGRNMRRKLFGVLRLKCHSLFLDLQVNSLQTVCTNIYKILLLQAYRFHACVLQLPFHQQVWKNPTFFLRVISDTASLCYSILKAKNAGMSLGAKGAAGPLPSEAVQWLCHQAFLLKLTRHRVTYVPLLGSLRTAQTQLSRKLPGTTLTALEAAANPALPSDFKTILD

DNA nucleotidylexotransferase (Bos taurus), sequence (P06526 whole entry): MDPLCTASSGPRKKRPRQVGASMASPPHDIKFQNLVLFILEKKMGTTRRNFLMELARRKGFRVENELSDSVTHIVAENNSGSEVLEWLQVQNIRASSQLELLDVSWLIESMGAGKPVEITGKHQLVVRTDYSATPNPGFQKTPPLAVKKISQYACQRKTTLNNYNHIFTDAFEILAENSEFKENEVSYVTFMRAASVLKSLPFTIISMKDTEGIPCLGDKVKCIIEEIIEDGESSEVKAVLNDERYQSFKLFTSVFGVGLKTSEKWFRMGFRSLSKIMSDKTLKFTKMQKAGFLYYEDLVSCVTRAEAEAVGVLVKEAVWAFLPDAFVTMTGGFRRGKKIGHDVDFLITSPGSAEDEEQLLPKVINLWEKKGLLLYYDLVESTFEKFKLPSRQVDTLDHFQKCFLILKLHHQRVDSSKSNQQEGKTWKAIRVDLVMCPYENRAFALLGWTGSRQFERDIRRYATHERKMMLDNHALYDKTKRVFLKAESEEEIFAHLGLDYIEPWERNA
Polynucleotide kinase (Enterobacteria phage T4), sequence (P06855 whole entry): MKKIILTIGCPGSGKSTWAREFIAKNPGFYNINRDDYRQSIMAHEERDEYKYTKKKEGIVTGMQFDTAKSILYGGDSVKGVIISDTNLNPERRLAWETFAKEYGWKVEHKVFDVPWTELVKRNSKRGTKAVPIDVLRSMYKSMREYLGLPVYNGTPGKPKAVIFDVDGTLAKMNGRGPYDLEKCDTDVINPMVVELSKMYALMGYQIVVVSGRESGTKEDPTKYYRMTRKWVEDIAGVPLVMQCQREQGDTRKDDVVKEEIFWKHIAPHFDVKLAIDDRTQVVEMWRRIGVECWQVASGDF
Inosine-5'-monophosphate dehydrogenase 2 (Mus musculus), sequence (P24547 whole entry, looked up): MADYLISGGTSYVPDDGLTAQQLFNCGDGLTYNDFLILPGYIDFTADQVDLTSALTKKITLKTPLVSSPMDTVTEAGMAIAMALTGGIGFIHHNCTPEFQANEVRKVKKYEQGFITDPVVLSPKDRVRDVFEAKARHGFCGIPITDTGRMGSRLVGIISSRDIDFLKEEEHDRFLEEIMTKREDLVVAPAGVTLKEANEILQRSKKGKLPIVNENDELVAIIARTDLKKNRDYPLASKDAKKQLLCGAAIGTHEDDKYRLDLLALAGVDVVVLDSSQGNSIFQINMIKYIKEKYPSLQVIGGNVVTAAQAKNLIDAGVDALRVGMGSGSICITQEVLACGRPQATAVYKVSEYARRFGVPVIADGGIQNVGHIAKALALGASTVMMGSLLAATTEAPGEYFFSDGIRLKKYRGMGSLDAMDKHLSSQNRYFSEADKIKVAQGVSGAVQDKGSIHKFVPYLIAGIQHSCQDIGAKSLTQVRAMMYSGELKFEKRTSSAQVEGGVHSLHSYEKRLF
Deoxyribonuclease-1 (Bos taurus), sequence (P00639 whole entry): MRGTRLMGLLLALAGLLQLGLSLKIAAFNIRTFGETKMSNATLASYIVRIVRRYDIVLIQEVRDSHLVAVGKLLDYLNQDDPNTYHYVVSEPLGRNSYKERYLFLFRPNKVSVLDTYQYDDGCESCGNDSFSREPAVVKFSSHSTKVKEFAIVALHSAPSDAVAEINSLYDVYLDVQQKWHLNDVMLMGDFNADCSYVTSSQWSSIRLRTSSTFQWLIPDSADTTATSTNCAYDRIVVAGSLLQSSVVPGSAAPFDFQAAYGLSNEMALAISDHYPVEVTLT
DNA topoisomerase 2-alpha (Homo sapiens), sequence (P11388 whole entry): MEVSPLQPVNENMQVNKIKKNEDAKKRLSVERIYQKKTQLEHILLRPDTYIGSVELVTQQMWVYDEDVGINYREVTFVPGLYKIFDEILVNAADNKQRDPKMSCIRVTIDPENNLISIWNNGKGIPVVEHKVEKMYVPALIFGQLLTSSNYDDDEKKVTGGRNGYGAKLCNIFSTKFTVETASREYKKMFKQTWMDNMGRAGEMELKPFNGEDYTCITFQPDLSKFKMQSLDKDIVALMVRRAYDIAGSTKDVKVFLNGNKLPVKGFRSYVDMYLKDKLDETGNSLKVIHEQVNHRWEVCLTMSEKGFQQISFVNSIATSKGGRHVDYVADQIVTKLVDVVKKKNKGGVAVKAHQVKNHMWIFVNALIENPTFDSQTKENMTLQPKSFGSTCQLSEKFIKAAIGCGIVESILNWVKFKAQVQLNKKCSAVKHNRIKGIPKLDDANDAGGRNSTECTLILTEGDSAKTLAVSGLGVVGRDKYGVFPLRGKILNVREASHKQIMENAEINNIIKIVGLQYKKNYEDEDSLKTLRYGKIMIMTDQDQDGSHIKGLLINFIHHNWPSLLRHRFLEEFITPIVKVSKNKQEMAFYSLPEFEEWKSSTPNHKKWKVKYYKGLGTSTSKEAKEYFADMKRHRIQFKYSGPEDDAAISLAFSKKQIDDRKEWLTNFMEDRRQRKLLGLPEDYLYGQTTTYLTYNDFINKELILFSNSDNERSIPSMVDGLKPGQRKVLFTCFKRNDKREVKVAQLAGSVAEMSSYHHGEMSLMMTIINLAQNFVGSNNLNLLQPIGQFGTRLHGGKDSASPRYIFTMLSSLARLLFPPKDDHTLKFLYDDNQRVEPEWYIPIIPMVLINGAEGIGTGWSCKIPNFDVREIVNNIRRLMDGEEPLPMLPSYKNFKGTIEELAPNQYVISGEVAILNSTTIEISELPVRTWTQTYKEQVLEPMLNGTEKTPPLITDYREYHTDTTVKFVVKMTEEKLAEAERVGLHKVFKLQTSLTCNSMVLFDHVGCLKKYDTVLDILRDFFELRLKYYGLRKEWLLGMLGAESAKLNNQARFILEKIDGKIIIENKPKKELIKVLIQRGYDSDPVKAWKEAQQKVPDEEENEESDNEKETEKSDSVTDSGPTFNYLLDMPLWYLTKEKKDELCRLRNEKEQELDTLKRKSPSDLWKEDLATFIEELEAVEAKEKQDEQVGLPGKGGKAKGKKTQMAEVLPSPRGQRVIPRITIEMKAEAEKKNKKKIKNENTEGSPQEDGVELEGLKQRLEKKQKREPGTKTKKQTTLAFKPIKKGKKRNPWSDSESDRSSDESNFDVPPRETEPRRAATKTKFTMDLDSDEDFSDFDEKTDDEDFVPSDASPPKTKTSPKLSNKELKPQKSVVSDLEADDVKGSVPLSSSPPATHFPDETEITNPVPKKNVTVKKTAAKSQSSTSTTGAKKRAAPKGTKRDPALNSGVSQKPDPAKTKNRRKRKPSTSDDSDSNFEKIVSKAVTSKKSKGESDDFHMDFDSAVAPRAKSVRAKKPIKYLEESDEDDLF

Row | SMILES | Activity (Bos taurus) | Activity (Brassica oleracea) | Activity [1] | Activity (Escherichia phage T7) | Activity (Tequatrovirus T4) | Activity (Oncorhynchus masou) | Activity [2] | Activity (Thermus aquaticus) | Activity [3] | Activity [4] | Activity [5] | IC50 [6] [µM] | Activity (Escherichia coli) | Activity [7] | Activity [8] | IC50 (DNA polymerase beta) [µM] | Activity [9] | Activity [10] | Activity [11]
1 | COc1cc(C)c(C(=O)O[C@H]2CC3=C(COC(/C=C/CO)=C3)C(=O)[C@@]2(C)O)c(O)c1 [KASANOSIN A] | inactive | inactive | inactive | inactive | inactive | inactive | inactive | inactive | Active | inactive | inactive | 35 | inactive | inactive | Active | 27.3 | inactive | inactive | inactive
2 | COc1cc(C)c(C(=O)O[C@]2(C)C(=O)C3=C(C=C(/C=C/CO)OC3)C[C@@H]2O)c(O)c1 [KASANOSIN B] | inactive | inactive | inactive | inactive | inactive | inactive | inactive | inactive | Active | inactive | inactive | 72.9 | inactive | inactive | Active | 60.1 | inactive | inactive | inactive
